Reference: patent US8377986B2, “Amino acid derivatives” (Proximagen Ltd., priority 2007, dated 2013)

Test: Pharmacokinetic analysis: apparent half-life of L-Dopa in rat plasma after dosing prodrug co-dosed with Benserazide
Assay type: in vivo
Conditions: male Wistar rats, L-Dopa generated from prodrug
Procedure: The compound of the invention (I) and comparison compounds (II-VII) were tested in an assay which measures parameters relevant to the pharmacokinetic profile of the test compound. The assay measured the length of time L-dopa remained in the blood of test animals Naïve male Wistar rats (bodyweight=250-500 g) were used for the pharmacokinetic studies. Animals were fasted overnight. The compound of interest was dissolved in 0.9% saline and co-dosed with Benserazide (10 mg/kg) at a molecular weight equivalent dose to 12.5 mg/kg L-Dopa. Blood samples were taken via a butterfly needle located into the lateral tail vein and collected into sample tubes containing heparin as the anti-coagulant. Blood samples were centrifuged at 5000 rpm for 10 minutes; the supernatant plasma was removed and stored at −80° C. Stock solutions of 10 mM L-Dopa and Warfarin were prepared in 20% TFA, 10 mM sodium meta bisulphite and DMSO, respectively. […] Quantification of L-Dopa and Warfarin was achieved by monitoring the transitions of m/z=198.075/152.1 and […], respectively. The apparent half-life of the L-Dopa generated from the prodrugs was calculated from the terminal plasma samples using non compartment models of WinNonLin (Pharsight California USA) with no weighting.

COC(=O)[C@@H](N)Cc1ccc(OC(=O)CC(C)(C)C)c(OC(=O)CC(C)(C)C)c1.Cl [I, (S)-2-[3,4-Bis-(3,3-dimethyl-butyryloxy)-phenyl]-1-methoxycarbonyl-ethyl-ammonium chloride]
apparent half-life compared with structurally analogous comparison compounds: significantly greater than the structurally analogous comparison compounds
